Where two headings read alike, the source gives them in different places.
Tests used:
[1] = tested on: Arabidopsis; assay: Effect of concentration of oxidized glutathione on growth of Arabidopsis; type: in vivo
Experimental: Specifically, soil filled in a pod of approximately 65 in width, 65 in depth, and 50 in height was immersed in 0 mM-, 0.01 mM-, 0.2 mM-, 1 mM-, 2 mM-, and 5 mM-GSSG solutions. Seeds of Arabidopsis were sown in such a manner that approximately three seeds existed in each pod, and the seeds were observed chronologically 3 weeks after the sowing.

[2] = tested on: Sweet corn (Canberra 90, TAKII & CO., LTD.); assay: Effect 2 of oxidized glutathione on productivity of corn (time of treatment); type: in vivo
Experimental: Sweet corn (Canberra 90, TAKII & CO., LTD.) was sown, and then transferred to a hydroponics pot ( 1/2000 are) filled with a culture soil (6 L of vermiculite as the lower layer, 3 L of The Kureha Ikubyou Baido soil as the middle layer, and 3 L of vermiculite as the upper layer) two weeks later and additionally fertilized with 3 g of KUMIAI RIN […] S604 four weeks later and six weeks later.
Further, the GSSG-treated plant was given 50 mL of 0.2 mM-GSSG solution four times in 2 weeks (two times a week) after 2 weeks, 4 weeks, or 6 weeks had elapsed from the sowing. Further, there were prepared a management zone to which 0.2 mM-GSSG was given 22 times in total for 11 weeks after 2 weeks had elapsed from the sowing and a management zone to which 0.2 mM-GSSG was not given.
The amount of fruits and the amount of biomass of ground parts of each plant were measured and harvest index was calculated.

[3] = tested on: rice (Akita 63); assay: Rice hydroponics, GSSG in additional fertilization, number of ears; type: in vivo; details: GSSG 0.2 gN per test location (0.1 m2) in additional fertilization
From the text: In particular, the method is effective for a plant such as gramineae whose yield is greatly dependent on tillers.

[4] = tested on: Soybean (breed: Tsurumusume) and soybean (breed; Toyomusume); assay: Influence of oxidized glutathione on growth and yield of seeds of soybean, agricultural field; type: in vivo; details: 0.5 mM-GSSG, 50 mL per individual two times a week at base of stem; each breed
Experimental: The soybean was fertilized with a nitrogen fertilizer that was KUMIAI RIN […] S604 in a ratio of 20 kgN per 10 are, and was additionally fertilized with 5 kgN 3 weeks later.
Further, in a GSSG-treated management zone, a 0.5 mM-GSSG solution was given to the base of a stem (see the arrow in FIG. 21) in the amount of 50 mL per one individual two times a week in such a manner that the solution flowed along the stem.
In a case where it was likely to rain, the GSSG solution was supplied to the plant after the rain. Similarly, in a case of watering, the GSSG solution was supplied to the plant after the watering. When the harvest time of the plant of the control (i.e. normal nitrogen management zone) was coming, supply of the GSSG solution to the plant in the GSSG-treated management zone was stopped.
The seed weight, the amount of biomass, and the harvest index of the plant thus obtained in the GSSG-treated management zone, each relative to that of the plant in the normal nitrogen management zone, were measured.

[5] = tested on: Arabidopsis; assay: Influence 1 of treatment condition on seeds of Arabidopsis (concentration and duration from sowing); type: in vivo
Experimental: Seeds of Arabidopsis were sown in pods filled with soil immersed in 0 mM-, 0.01 mM-, 0.2 mM-, 1 mM-, 2 mM-, and 5 mM-GSSG.
(§1) Arabidopsis was cultivated under the same conditions as those described in <1. Influence of oxidized glutathione on growth of Arabidopsis> except for the above condition.
The seed weight per one pod, obtained from Arabidopsis thus cultivated (three plants in each pod), was measured. The results of the measurement are shown in FIGS. 10-12. n is the number of plants that can be finally harvested.

[6] = tested on: Rose (breed; English rose); assay: Influence of oxidized glutathione on growth of rose (English rose); type: in vivo; details: 50 mL of 0.5 mM-GSSG two times a week for four months, then pruned
Experimental: Rose (breed; English rose) was fertilized with 50 mL of a 0.5 mM-GSSG solution two times a week for four months and then pruned completely and cultivated.

[7] = tested on: transformants of Arabidopsis to which a gene encoding gFBA was introduced and the wild-type Arabidopsis (Columbia; Col); details: in vivo
[8] = tested on: Arabidopsis; assay: Influence 4 of treatment condition on seeds of Arabidopsis (two weeks of 1 mM-GSSG); type: in vivo; details: 1 mM-GSSG only for two weeks in a specific growth period
Experimental: Seeds of Arabidopsis were sown in pods filled with soil immersed in water. The pods were transferred to trays filled with water containing 1 mM-GSSG and cultivated there only for two weeks that are the first and second weeks (0th-14th day), the second and third weeks (8th-21st day), the third and fourth weeks (15th-28th day), the fourth and fifth weeks (22nd-35th day), the fifth and sixth weeks (29th-42nd day), or the sixth and seventh weeks (36th-49th day) after the sowing. That is, Arabidopsis were treated with 1 mM-GSSG only for two weeks in a specific growth period.
as §1
(§2) The seed weight per one pod, obtained from Arabidopsis thus cultivated (three plants in each pod), was measured.

[9] = tested on: Arabidopsis; assay: Influence 2 of treatment condition on seeds of Arabidopsis (start time of 1 mM-GSSG); type: in vivo; details: regardless of the time of treating
Experimental: Seeds of Arabidopsis were sown in pods filled with soil immersed in water. The pods were transferred to trays with water containing 1 mM-GSSG 2 days after, 1 week after, 2 weeks after, 3 weeks after, 4 weeks after, 5 weeks after, 6 weeks after, or 7 weeks after the sowing.
as §1, §2

[10] = tested on: Roses (breed; Patiohit alicante); assay: Effect 1 on promotion of induction of floral bud of rose; type: in vivo; details: 50 mL of 0.5 mM-GSSG two times a week; approximately three and a half months
Experimental: Roses (breed; Patiohit alicante) were purchased at a hardware store and fertilized with 50 mL of a 0.5 mM-GSSG solution in the form of a liquid fertilizer two times a week. Approximately three and a half months later, plants in a GSSG-treated zone and plants in a non-GSSG-treated zone were compared with each other.

[11] = tested on: Sweet corn; assay: Effect 3 of oxidized glutathione on productivity of corn (foliar spray); type: in vivo; details: GSSG sprayed to a stem and leaves four times in two weeks after six weeks from the sowing
Experimental: Sweet corn was cultivated under the same conditions as those of <15.
The amount of fruits and the amount of biomass of ground parts of the plant thus obtained were measured with respect to each plant and harvest index was calculated.

[12] = tested on: Arabidopsis; details: in vivo
[13] = tested on: Rose saplings (breed; Purple rose); assay: Effect 1 on promoting growth of sprout and floral bud of rose (Purple rose); type: in vivo; details: 50 mL of 0.5 mM-GSSG two times a week; one month from the fertilization
Experimental: Rose saplings (breed; Purple rose) were purchased at a hardware store and cultivated in pods for rice hydroponics. The rose saplings were fertilized with 50 mL of a 0.5 mM-GSSG solution in the form of a liquid fertilizer two times a week.

[14] = soil immersed in 0-5 mM GSSG solutions
[15] = 0.2 mM-GSSG, eleven weeks after two weeks had elapsed from the sowing

oxidized glutathione [GSSG]
difference from Arabidopsis cultivated with water (0 mM) ([1]; 0.01 mM GSSG): almost no difference | concentration at which making a leaf rounder and lengthening the life of a plant were clearly observed [1, 14]: 0.2 to 2 mM | concentration at which making a stem thicker was observed [1, 14]: 1 to 2 mM | amount of fruits and amount of biomass of ground parts per plant vs not treated [2, 15]: a larger amount of fruits and a larger amount of biomass of ground parts | harvest index vs not treated [2, 15]: great increase in harvest index | amount of fruits and amount of biomass of ground parts per plant vs not treated ([2]; 0.2 mM-GSSG, two weeks after four weeks had elapsed from the sowing): a larger amount of fruits and a larger amount of biomass of ground parts | amount of fruits and amount of biomass of ground parts per plant vs not treated ([2]; 0.2 mM-GSSG, two weeks after six weeks had elapsed from the sowing): a smaller amount of fruits and a smaller amount of biomass of ground parts | harvest index vs not treated ([2]; 50 mL of 0.2 mM-GSSG, two weeks after four weeks had elapsed from the sowing): great increase in harvest index | harvest index vs not treated ([2]; 50 mL of 0.2 mM-GSSG, two weeks after six weeks had elapsed from the sowing): larger harvest index | number of ears relative to plant cultivated with only water [3]: approximately 1.4 times | amount of biomass vs normal nitrogen management zone [4]: higher | harvest index vs normal nitrogen management zone [4]: higher | seed weight vs normal nitrogen management zone [4]: higher | seed weight per pod: effective concentration ([5]; supplying GSSG for a long time): GSSG with low concentration is more effective than GSSG with high concentration | seed weight per pod: effective concentration ([5]; supplying GSSG for a short time): GSSG with high concentration is more desirable | germination and growth of new buds vs not treated [6]: significantly earlier germination and significant promotion of growth of new buds | harvest index, whole amount of biomass and seed weight [7]: increased any of the harvest index, the whole amount of biomass, and the seed weight | seed weight per one pod vs not treated [8]: significantly increased the seed weight | seed weight per one pod vs no treatment [9]: more seed weight | number of bloomed flowers vs not treated [10]: greatly larger number of bloomed flowers | amount of fruits, amount of biomass of ground parts and harvest index of each plant [11]: increased the amount of fruits, the amount of biomass of ground parts, and the harvest index | seed weight per one pod vs not treated [12]: significantly increased the seed weight | growth of sprout vs not treated [13]: promoted growth of sprout
